Data: EP4603105A1, “PHARMACEUTICAL COMPOSITION CONTAINING CYCLIC COMPOUND HAVING SELECTIVE KRAS INHIBITORY EFFECT AGAINST HRAS AND NRAS” (CHUGAI SEIYAKU KABUSHIKI KAISHA, priority 2022, dated 2024)
Where a SMILES comes first, the peptide text is derived from it. Bridges are numbered along the chain shown (N, C = ends). [ ]: non-standard residue; d: D form. The star is where a group is joined. hPhe(3,5-F2-4-CF3) = N[C@@H](CCc1cc(F)c(C(F)(F)F)c(F)c1)C(=O)O; NPrPhe(4-CF3) = CCCN[C@@H](Cc1ccc(C(F)(F)F)cc1)C(=O)O; NMeGly(cPent) = CN[C@H](C(=O)O)C1CCCC1; αMeF = C[C@](N)(Cc1ccccc1)C(=O)O; NMeD = CN[C@@H](CC(=O)O)C(=O)O; NMeL = CN[C@@H](CC(C)C)C(=O)O; Morpholide = C1CN(*)CCO1; Aze = O=C(O)[C@@H]1CCN1; Sar = CNCC(=O)O

How the values were obtained:
[1] = target: GDP-bound KRAS wild-type protein (Homo sapiens, UniProt P01116); test: Binding to KRAS by surface plasmon resonance (SPR), dissociation constant KD
Summary of the method: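 Measured at 30°C: SPR with GDP-loaded, E. coli-expressed biotin-Avi RAS captured (~100–300 RU), ascending 75 s compound injections, HBS pH 7.4 with GDP, MgCl2, 4% DMSO. KD from 1:1 fit.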

[2] = target: GDP-bound NRAS wild-type protein (Homo sapiens, UniProt P01111); test: Binding to NRAS by surface plasmon resonance (SPR), KD and KD ratio to KRAS
Summary of the method: (§1)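 Single-cycle kinetics on GDP-loaded biotin-Avi RAS captured to ~100–300 RU; 75 s ascending injections, 100 µL/min, 30°C. HBS pH 7.4 + 10 mM MgCl2/10 µM GDP/4% DMSO. 1:1 fit, KD.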

HRAS wild-type protein = HRAS wild-type protein (Homo sapiens, UniProt P01112); test: Binding to HRAS by surface plasmon resonance (SPR), KD and KD ratio to KRAS
Summary of the method: as §1

[3] = tested on: human lung cancer strain NCI-H441; format: cell-based
Summary of the method: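 Proliferation was scored by […] measured after the reagent was added to cultures kept at 37°C in 5% carbon dioxide.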

[4] = Single Cycle Kinetics, 1:1 binding model
[5] = ratio of KD value for GDP-bound NRAS wild-type protein to KD value for KRAS (SPR)
[6] = ratio of KD value for HRAS wild-type protein to KD value for KRAS (SPR)
[7] = ratio of KD for GDP-bound NRAS wild-type protein to KD for KRAS
[8] = ratio of KD for HRAS wild-type protein to KD for KRAS
[9] = ratio of the KD value with respect to GDP-bound NRAS wild-type protein to the KD value with respect to KRAS
[10] = ratio of the KD value with respect to HRAS wild-type protein to the KD value with respect to KRAS

GDP-bound KRAS wild-type protein, sequence (P01116 1-188 isoform P01116-2): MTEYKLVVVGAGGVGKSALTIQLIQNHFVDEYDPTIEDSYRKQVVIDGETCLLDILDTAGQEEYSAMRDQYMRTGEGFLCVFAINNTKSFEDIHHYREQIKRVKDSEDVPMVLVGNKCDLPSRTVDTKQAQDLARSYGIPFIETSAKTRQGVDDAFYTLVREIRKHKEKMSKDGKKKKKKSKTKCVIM
HRAS wild-type protein, sequence (P01112 whole entry): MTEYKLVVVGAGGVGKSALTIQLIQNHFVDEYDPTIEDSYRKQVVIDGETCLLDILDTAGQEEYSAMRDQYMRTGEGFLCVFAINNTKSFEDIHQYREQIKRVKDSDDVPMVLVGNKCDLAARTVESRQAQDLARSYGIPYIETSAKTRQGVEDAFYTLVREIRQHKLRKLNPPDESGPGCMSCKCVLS
GDP-bound NRAS wild-type protein, sequence (P01111 whole entry): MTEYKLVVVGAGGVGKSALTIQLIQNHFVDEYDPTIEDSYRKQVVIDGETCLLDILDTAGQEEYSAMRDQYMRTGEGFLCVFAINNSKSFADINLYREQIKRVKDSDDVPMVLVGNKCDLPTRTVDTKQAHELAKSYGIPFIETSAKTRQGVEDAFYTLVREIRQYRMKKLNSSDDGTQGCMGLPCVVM

SMILES	Kd [1, 4] [nM]	IC50 [3] [nM]	Kd ([1]; 1:1 binding model) [nM]	Kd ([1]; Single Cycle Kinetics) [nM]	NRAS /KRAS [2, 5]	HRAS /KRAS (HRAS wild-type protein; [6])	NRAS /KRAS [2, 7]	HRAS /KRAS (HRAS wild-type protein; [8])	NRAS /KRAS [2, 9]	HRAS /KRAS (HRAS wild-type protein; [10])
CCO[C@@H]1C[C@H]2C(=O)NC3(CCC3)C(=O)N(C)[C@@H](C3CCCC3)C(=O)N(C)[C@H](C(=O)N(C)C)CC(=O)N(C)[C@@H](CC3CC3)C(=O)N[C@@H]([C@@H](C)CC)C(=O)N(C)CC(=O)N(C)[C@H]3C/C=C\CCN(C3=O)[C@@H](Cc3ccc(F)cc3C)C(=O)N(C)CC(=O)N[C@@H](CCc3cc(F)c(C(F)(F)F)c(F)c3)C(=O)N2C1 [PP1528]	0.2	45.6	–	–	A (a compound having 10 or more and less than 20 is denoted as A)	B (a compound having 3 or more and less than 10 is denoted as B)	–	–	–	–
CCCN1C(=O)CN(C)C(=O)[C@@H]2CCN2C(=O)[C@H]([C@@H](C)CC)NC(=O)[C@H](CC(C)C)N(C)C(=O)C[C@@H](C(=O)N2CCOCC2)N(C)C(=O)[C@H](C2CCCC2)N(C)C(=O)[C@](C)(Cc2ccccc2)NC(=O)[C@@H]2CCCN2C(=O)[C@H](CCc2cc(F)c(C(F)(F)F)c(F)c2)NC(=O)CN(C)C(=O)[C@@H]1Cc1ccc(C(F)(F)F)cc1 [PP0778] ([NMeL]I[Aze][Sar][NPrPhe(4-CF3)][Sar][hPhe(3,5-F2-4-CF3)]P[αMeF][NMeGly(cPent)][NMeD]-Morpholide; lactam N-11)	–	546	–	10	–	–	B (a compound having 3 or more and less than 10 is denoted as B)	B (a compound having 3 or more and less than 10 is denoted as B)	–	–
CC[C@H](C)[C@@H]1NC(=O)[C@H](CC(C)C)N(C)C(=O)C[C@@H](C(=O)N2C3CCC2COC3)N(C)C(=O)[C@H](C2CCCC2)N(C)C(=O)C2(CCCC2)NC(=O)[C@@H]2CCCN2C(=O)[C@H](CCc2cc(F)c(C(F)(F)F)c(F)c2)NC(=O)CN(C)C(=O)[C@H](Cc2ccc(C(F)(F)F)cc2)N2CCCCC[C@@H](C2=O)N(C)C(=O)CN(C)C1=O [PP0511]	16	414	–	–	–	–	–	–	A (a compound having 10 or more and less than 20 is denoted as A)	B (a compound having 3 or more and less than 10 is denoted as B)
CCO[C@@H]1C[C@H]2C(=O)NC3(CCC3)C(=O)N(C)[C@@H](C3CCCC3)C(=O)N(C)[C@H](C(=O)N(C)CC)CC(=O)N(C)[C@@H](CC3CCC3)C(=O)N[C@@H]([C@@H](C)CC)C(=O)N(C)CC(=O)N(C)[C@H]3C/C=C\CCN(C3=O)[C@@H](Cc3ccc(C(F)(F)F)cc3)C(=O)N(C)CC(=O)N[C@@H](CCc3cc(F)c(C(F)(F)F)c(F)c3)C(=O)N2C1 [PP1667]	0.081	2	–	–	A (a compound having 10 or more and less than 20 is denoted as A)	A (a compound having 10 or more and less than 20 is denoted as A)	–	–	–	–

Now from value to compound, other results behind:

Kd [1, 4] [nM]	IC50 [3] [nM]	Kd ([1]; 1:1 binding model) [nM]	Kd ([1]; Single Cycle Kinetics) [nM]	SMILES	NRAS /KRAS [2, 5]	HRAS /KRAS (HRAS wild-type protein; [6])	NRAS /KRAS [2, 7]	HRAS /KRAS (HRAS wild-type protein; [8])	NRAS /KRAS [2, 9]	HRAS /KRAS (HRAS wild-type protein; [10])
–	16.1	0.12	–	CCO[C@@H]1C[C@H]2C(=O)NC3(CC(C)(C)C3)C(=O)N(C)[C@@H](C3CCCC3)C(=O)N(C)[C@H](C(=O)N(C)C)CC(=O)N(C)[C@@H]([C@H](C)OC)C(=O)N[C@@H]([C@@H](C)CC)C(=O)N(C)CC(=O)N(C)[C@H]3C/C=C\CCN(C3=O)[C@@H](Cc3ccc(C)cc3)C(=O)N(C)CC(=O)N[C@@H](CCc3ccc(C(F)(F)F)c(OC)c3)C(=O)N2C1 [PP3185]	–	–	A (a compound having 10 or more and less than 20 is denoted as A)	A (a compound having 10 or more and less than 20 is denoted as A)	–	–
–	45.8	0.48	–	CCO[C@@H]1C[C@H]2C(=O)NC3(CC(C)(C)C3)C(=O)N(C)[C@@H](C3CCCC3)C(=O)N(C)[C@H](C(=O)N(C)C)CC(=O)N(C)[C@@H]([C@@H](C)OC)C(=O)N[C@@H]([C@@H](C)CC)C(=O)N3CCC[C@H]3C(=O)N(C)[C@H]3C/C=C\CCN(C3=O)[C@@H](Cc3ccc(C)cc3)C(=O)N(C)CC(=O)N[C@@H](CCc3cc(F)c(C(F)(F)F)c(F)c3)C(=O)N2C1 [PP3214]	–	–	A (a compound having 10 or more and less than 20 is denoted as A)	A (a compound having 10 or more and less than 20 is denoted as A)	–	–
0.063	5.5	–	–	CCO[C@@H]1C[C@H]2C(=O)NC3(CC(C)(C)C3)C(=O)N(C)[C@@H](C3CCCC3)C(=O)N(C)[C@H](C(=O)N(C)C)CC(=O)N(C)[C@@H](CC3CC3)C(=O)N[C@@H]([C@@H](C)CC)C(=O)N(C)CC(=O)N(C)[C@H]3C/C=C\CCN(C3=O)[C@@H](Cc3ccc(C)cc3)C(=O)N(C)CC(=O)N[C@@H](CCc3ccc(C(F)(F)F)c(OC)c3)C(=O)N2C1 [PP1903]	–	–	–	–	A (a compound having 10 or more and less than 20 is denoted as A)	B (a compound having 3 or more and less than 10 is denoted as B)
–	37	1	–	CCC[C@H]1C(=O)N[C@@H]([C@@H](C)CC)C(=O)N(C)CC(=O)N(C)[C@H]2C/C=C\CCN(C2=O)[C@@H](Cc2ccc(C)cc2)C(=O)N(C)CC(=O)N[C@@H](CCc2cc(Cl)c3c(ccn3C)c2)C(=O)N2C[C@H](OCC)C[C@H]2C(=O)NC2(CC(C)(C)C2)C(=O)N(C)[C@@H](C2CCCC2)C(=O)N(C)[C@H](C(=O)N(C)C)CC(=O)N1C [PP2951]	–	–	A (a compound having 10 or more and less than 20 is denoted as A)	A (a compound having 10 or more and less than 20 is denoted as A)	–	–
